The test system of series [1] is CCRF/CEM cells. Also on record: method as in PMID 24898668. The following applies: cited from earlier work.
Series [2] relates to LoVo cells. Briefly: SRB assay (total protein content), LoVo. The series is classed as cell-based. Particulars: Homo sapiens, 48 h incubation. On the procedure: The anticancer activity of tested compounds was assessed on five human cell lines selected from the panel of tumor cell lines recommended by the National Cancer Institute: A495 (lung carcinoma), CCRF/CEM (acute lymphoblastic leukemia), LoVo and LoVo/DX (two types of colorectal: non-resistant and resistant to doxorubicin), and MCF-7 (breast adenocarcinoma). In addition, the NHDF cell line (normal human dermal fibroblasts) was used to estimate cytotoxicity to noncancer cells. The A549, CCRF/CEM, LoVo, LoVo/DX, and MCF-7 cells were obtained from ECACC, and NHDF cells from LONZA, Belgium. The A549 and MCF-7 cells were grown in EMEM medium, CCRF/CEM cells in RPMI-1640, LoVo and LoVo/DX cells in DMEM/F-12, and NHDF cells in DMEM without phenol red. The cells were seeded in […] in the biological assay, as recommended by the National Cancer Institute. All culture media were supplemented with L-glutamine, penicillin, streptomycin, and 10% fetal bovine serum (FBS). Cells were incubated at 37 °C and 5% CO2. One of the most popular in vitro tests to evaluate the activity of compounds with potential antitumor activity is the SRB assay. The sulforhodamine B dye is used, which binds to the protein at the appropriate pH. The assay allows for assessing cell mass and, indirectly, their proliferation. The advantage of the assay is that it measures cellular protein content and not the activity of any enzymes. The SRB assay was carried out according to the National Cancer Institute procedure. Cells were incubated in a culture medium for 24 h in 96-well plates. After 24 h, the control plate for each cell line was fixed with TCA to evaluate cell culture before treatment with tested compounds. […] Cell cultures were then fixed by adding 50% TCA at 4 °C for 1 h. After removing the supernatant, the plates were washed with water and dried. […] Growth inhibition was calculated following the NCI guidelines and expressed as the GI50 ratio, i.e., the concentration of the compound in which the amount of protein was reduced by half compared with the control.
In general terms: In SRB staining, fixed cells bind dye roughly in proportion to their protein.

In series [3] the test system is CCRF/CEM cells. Kind of series: Evaluation of the cell cycle (Tali Cell Cycle Kit). In kind it is cell-based, human. The following applies: for cell cycle effect: after exposure. On the procedure: It is expected that tested compounds affect cell division processes (intense in cancer). Therefore, the effect of compounds on the cell cycle was assessed by quantifying the content of cellular DNA in CCRF/CEM cells with Tali Cell Cycle Kit (Invitrogen). Cells were prepared by 24 h initial incubation in RPMI-1640 medium followed by the addition of tested compounds for a further 24 h. Subsequently, cells were harvested, centrifuged, washed, dissolved in PBS, and centrifuged again. After removing PBS, the cells were resuspended in Tali Cell Cycle Solution and incubated for 20 min in the dark at RT. Finally, the cells were transferred to the Tali Cellular Analysis Slides and analyzed using an image-based cytometer Arthur (NanoEnTek Inc.).

Series [4] relates to A549 cells. Kind of series: Proton pump blocking test (omeprazole) for lysosomal exocytosis. The series is classed as cell-based, human. The following applies: for intracellular localisation: LysoTracker staining. On the procedure:
To assess whether the exocytosis of olivacine and ellipticine from cancer cells is lysosomal, a proton pump blocking test was performed. Omeprazole was added into A549 cells at a concentration of 200 µM for 1 h. The cell culture was then washed twice with PBS, and the cells were treated with tested compounds. The cell culture was assessed using an Evos FL microscope. The lysosomes were stained using LysoTracker™ Deep Red kit (L12492; Invitrogen). Cultured cells were evaluated using an Evos FL microscope, taking photos every 15 min. After treatment with olivacine or olivacine and omeprazole, analysis of mean cell fluorescence was performed from five independent replicates. In addition, 14 pictures were taken from each replicate, and 100 cells were analyzed by photomicrography using the ImageJ platform.

Series [5] has as its system MCF-7 cells. Kind of series: MTT assay (mitochondrial activity), MCF-7. The series is classed as cell-based. The following applies: Homo sapiens, MCF7. On the procedure:
The anticancer activity of tested compounds was assessed on five human cell lines selected from the panel of tumor cell lines recommended by the National Cancer Institute: A495 (lung carcinoma), CCRF/CEM (acute lymphoblastic leukemia), LoVo and LoVo/DX (two types of colorectal: non-resistant and resistant to doxorubicin), and MCF-7 (breast adenocarcinoma). In addition, the NHDF cell line (normal human dermal fibroblasts) was used to estimate cytotoxicity to noncancer cells. The A549, CCRF/CEM, LoVo, LoVo/DX, and MCF-7 cells were obtained from ECACC, and NHDF cells from LONZA, Belgium. The A549 and MCF-7 cells were grown in EMEM medium, CCRF/CEM cells in RPMI-1640, LoVo and LoVo/DX cells in DMEM/F-12, and NHDF cells in DMEM without phenol red. The cells were seeded in […] in the biological assay, as recommended by the National Cancer Institute. All culture media were supplemented with L-glutamine, penicillin, streptomycin, and 10% fetal bovine serum (FBS). Cells were incubated at 37 °C and 5% CO2. An assessment of the mitochondrial cell activity after applying tested compounds was carried out using the test MTT assay, recommended in the ISO 10993-5:2009 standard. As in the SRB assay, the cells were exposed to tested compounds after 24 h of initial incubation in 96-well plates. The MTT solution (1 mg/mL) was added to each well, and cells were incubated for 2 h. Finally, the supernatant was removed, and the formazan crystals were dissolved in isopropanol. After 30 min, absorbance at 570 nm in Victor2 microplate reader (PerkinElmer). Cell viability was determined as the IC50 ratio, i.e., the concentration of the compound in which the viability was reduced by half compared with the control.
In general terms: Formazan colour is commonly taken as a measure of viable cells.

Series [6] relates to MV4–11 cells. Also on record: method as in PMID 25107543. The following applies: 5 μM; cited from earlier work.
Series [7] deals with A549 cells. Briefly: Cell morphology, microscopic observation, A549. In kind it is cell-based, human. The following applies: for cell morphology: 24 h incubation. Here is the method: Olivacine, similar to ellipticine, is a compound with fluorescent properties. Therefore, by analyzing the intensity of fluorescence over time, it is possible to assess the cellular pharmacokinetics of the compounds. At the same time, cell morphology was also assessed. The cells were seeded into a 96-well plate and cultured for 24 h (37 °C, 5% CO2) for cell adhesion to the surface and regeneration. […] The culture plate was placed under a Juli microscope, and the device with the plate inside was put in the CO2 incubator. Pictures were taken every 15 min for 24 h. We have prepared software that allowed us to measure the fluorescence intensity of the indicated cells. Fluorescence analysis was performed for all images (every 15 min) during a period of rapid change in fluorescence intensity and less often at a later period when it stabilized. Three independent experiments were carried out, always analyzing 50 selected cells.

Where [8] appears, read: 1 h pre-incubation with 200 µM omeprazole, compound 10 µM.

Where two headings read alike, the source gives them in different places.

Take `Cc1c2ccncc2c(C)c2c1[nH]c1ccccc12` [Ellipticine]: the cell cycle effect entry in series [1] is recorded as “stop the cell cycle in the G0/G1 phase”; in series [3], “blockade of the cell cycle in the G0/G1 phase”; in series [6], “arrest of the cell cycle at the G2/M checkpoint”. The 50% growth inhibitory concentration (GI50) (as a rule, the concentration at which growth is held to half of that of the control) in series [2] is 950 ± 250 nM. In addition, the “time after which exocytosis was observed after omeprazole” value in series [4] (setting [8]) was more than 3 h. In series [5], 4670 ± 530 nM corresponded to half-maximal inhibition (IC50).
In turn, `Cc1nccc2c(C)c3[nH]c4ccccc4c3cc12` [Olivacine, 1,5-dimethyl-6H-pyrido[4,3-b]carbazole] gave a GI50 in series [2] of 1020 ± 210 nM. Moreover, the “cell cycle inhibition at lower concentrations” value in series [3] (0.2 µM and 0.5 µM) was “No cell cycle inhibition”. For the same compound, in series [3], the cell cycle effect result is “blockade of the cell cycle in the G0/G1 phase”. In addition, the “duration of blockage of exocytosis after omeprazole” value in series [4] (setting [8]) was “at least 3 h”. In addition, the intracellular localisation entry in series [4] (with omeprazole) is “in the cytoplasm and not in the lysosomes”; in series [4] (without omeprazole), “accumulation of olivacine in the lysosomes”. The midpoint of inhibition in series [5], the IC50, lay at 18500 ± 2410 nM. Also, the cell morphology result is “Cytosol degradation” in series [7] (2 μM) and “completely degraded” in series [7] (20 μM). For the same compound, the “concentration at which growth inhibition is visible” value in series [7] (microscopic observation, 24 h) stood at 2 µM.

Values taken from PMC9181543, “Lysosomal Exocytosis of Olivacine on the Way to Explain Drug Resistance in Cancer Cells” (International Journal of Molecular Sciences, 2022).
